Assay results as given in patent US4477443A, “Tylosin derivatives, their preparation and pharmaceutical compositions containing them” (Zaidan Hojin Biselbutsu Kagaku Kenkyu Kai (Microbial …, priority 1981, dated 1984).
Values after ≈ are worked out from the molar mass of the structure shown. Like-named read-outs stand apart in the source and are kept apart here.

What was measured:
Assay in all cases: antimicrobial activity (MIC), Table I
Type in all cases: cell-based
[1] = tested on: Staph. aureus 193; details: Staphylococcus aureus
[2] = tested on: Staph. aureus 209 P; details: Staphylococcus aureus
[3] = tested on: Staph. aureus MS 9861; details: Staphylococcus aureus, MS9861
[4] = tested on: Sarcina lutea PCI 1001; details: Micrococcus luteus, PCI1001
[5] = tested on: B. subtilis NRRL B-558; details: Bacillus subtilis, NRRLB558
[6] = tested on: Coryn. bovis 1810; details: Corynebacterium bovis
[7] = tested on: E. coli NIHJ; details: Escherichia coli
[8] = tested on: E. coli K-12; details: Escherichia coli, K12
[9] = tested on: E. coli K-12 R-5; details: Escherichia coli, K12R5
[10] = tested on: E. coli K-12 ML 1410; details: Escherichia coli, K12ML1410
[11] = tested on: Kleb. pneumoniae PCI 602; details: Klebsiella pneumoniae, PCI602
[12] = tested on: Shigella dysenteriae JS 11910; details: JS11910
[13] = tested on: Sal. enteritidis 1891; details: Salmonella enterica
[14] = tested on: Pro. vulgaris OX-19; details: Proteus vulgaris, OX19; Pro. vulgaris OX-19; read-out: MIC
[15] = Staph. aureus 193, read-out: MIC
[16] = Staph. aureus 209 P, read-out: MIC
[17] = Staph. aureus MS 9861, read-out: MIC
[18] = Sarcina lutea PCI 1001, read-out: MIC
[19] = B. subtilis NRRL B-558, read-out: MIC
[20] = Coryn. bovis 1810, read-out: MIC
[21] = E. coli K-12 R-5, read-out: MIC
[22] = E. coli K-12 ML 1410, read-out: MIC
[23] = Kleb. pneumoniae PCI 602, read-out: MIC
[24] = Sal. enteritidis 1891, read-out: MIC

| Structure (SMILES) | MIC [1, 15] [µg/mL] | MIC [2, 16] [µg/mL] | MIC [3, 17] [µg/mL] | MIC [4, 18] [µg/mL] | MIC [5, 19] [µg/mL] | MIC [6, 20] [µg/mL] | MIC ([7]; E. coli NIHJ, read-out: MIC) [µg/mL] | MIC ([8]; E. coli K-12, read-out: MIC) [µg/mL] | MIC [9, 21] [µg/mL] | MIC [11, 23] [µg/mL] | MIC [12] [µg/mL] | MIC [13, 24] [µg/mL] | further results |
| --- | --- | --- | --- | --- | --- | --- | --- | --- | --- | --- | --- | --- | --- |
| CCC1OC(=O)CC(O)C(C)C(OC2OC(C)C(O)C(N(C)C)C2O)C(CC=O)CC(C)C(=O)C=CC(C)=CC1CN(C)C (stereo not drawn) [Example 4, 23-deoxy-23-dimethylaminomycaminosyl tylonolide] | 0.39 (≈ 0.624 µM) | 0.2 (≈ 0.32 µM) | 1.56 (≈ 2.5 µM) | < 0.2 | 0.78 (≈ 1.25 µM) | 0.78 (≈ 1.25 µM) | 0.78 (≈ 1.25 µM) | 1.56 (≈ 2.5 µM) | 1.56 (≈ 2.5 µM) | 0.78 (≈ 1.25 µM) | 0.39 (≈ 0.624 µM) | 1.56 (≈ 2.5 µM) | MIC [10, 22]: 1.56 µg/mL (≈ 2.5 µM); MIC [14]: 1.56 µg/mL (≈ 2.5 µM) |
| CCC1OC(=O)CC(O)C(C)C(OC2OC(C)CC(N(C)C)C2O)C(CC=O)CC(C)C(=O)C=CC(C)=CC1CN1CCCC1 (stereo not drawn) [Example 16, 23,4'-dideoxy-23-pyrrolidinomycaminosyl tylonolide] | 1.56 (≈ 2.46 µM) | 0.39 (≈ 0.614 µM) | 3.12 (≈ 4.91 µM) | < 0.2 | 0.78 (≈ 1.23 µM) | 0.39 (≈ 0.614 µM) | 1.56 (≈ 2.46 µM) | 3.12 (≈ 4.91 µM) | 1.56 (≈ 2.46 µM) | 0.78 (≈ 1.23 µM) | < 0.2 | 0.39 (≈ 0.614 µM) | MIC [10]: 3.12 µg/mL (≈ 4.91 µM); MIC [14]: 1.56 µg/mL (≈ 2.46 µM) |
| CCC1OC(=O)CC(O)C(C)C(OC2OC(C)CC(N(C)C)C2O)C(CC=O)CC(C)C(=O)C=CC(C)=CC1CN1CCCCC1 (stereo not drawn) [Example 17, 23,4'-dideoxy-23-piperidinomycaminosyl tylonolide] | 0.78 (≈ 1.2 µM) | 0.39 (≈ 0.601 µM) | 1.56 (≈ 2.4 µM) | < 0.2 | 0.39 (≈ 0.601 µM) | < 0.2 | 0.78 (≈ 1.2 µM) | 3.12 (≈ 4.81 µM) | 1.56 (≈ 2.4 µM) | 1.56 (≈ 2.4 µM) | < 0.2 | 0.39 (≈ 0.601 µM) | MIC [10, 22]: 0.78 µg/mL (≈ 1.2 µM); MIC [14]: 0.78 µg/mL (≈ 1.2 µM) |
| CCC1OC(=O)CC(O)C(C)C(OC2OC(C)C(O)C(N(C)C)C2O)C(CC=O)CC(C)C(=O)C=CC(C)=CC1CN(C)Cc1ccccc1 (stereo not drawn) [Example 25, 23-deoxy-23-(N-methylbenzylamino)mycaminosyl tylonolide] | 0.2 (≈ 0.285 µM) | < 0.2 | 0.2 (≈ 0.285 µM) | 0.39 (≈ 0.556 µM) | 3.12 (≈ 4.45 µM) | < 0.2 | 1.56 (≈ 2.23 µM) | 3.12 (≈ 4.45 µM) | 6.25 (≈ 8.92 µM) | 0.39 (≈ 0.556 µM) | 3.12 (≈ 4.45 µM) | 1.56 (≈ 2.23 µM) |  |
| CCC1OC(=O)CC(O)C(C)C(OC2OC(C)C(O)C(N(C)C)C2O)C(CC=O)CC(C)C(=O)C=CC(C)=CC1CN(C)CCc1ccccc1 (stereo not drawn) [Example 26, 23-deoxy-23-(N-methylphenethylamino)mycaminosyl tylonolide] | 0.2 (≈ 0.28 µM) | < 0.2 | 12.5 (≈ 17.5 µM) | < 0.2 | 50 (≈ 69.9 µM) | < 0.2 | 3.12 (≈ 4.36 µM) | 12.5 (≈ 17.5 µM) | 12.5 (≈ 17.5 µM) | 0.78 (≈ 1.09 µM) | 3.12 (≈ 4.36 µM) | 3.12 (≈ 4.36 µM) |  |
| CCC1OC(=O)CC(O)C(C)C(OC2OC(C)C(O)C(N(C)C)C2O)C(CC=O)CC(C)C(=O)C=CC(C)=CC1CN(C)C1CCCCC1 (stereo not drawn) [Example 27, 23-deoxy-23-(N-methylcyclohexylamino)mycaminosyl tylonolide] | 0.78 (≈ 1.13 µM) | < 0.2 | 3.12 (≈ 4.5 µM) | < 0.2 | < 0.2 | < 0.2 | 0.78 (≈ 1.13 µM) | 3.12 (≈ 4.5 µM) | 3.12 (≈ 4.5 µM) | < 0.2 | < 0.2 | < 0.2 |  |
| CCC1OC(=O)CC(O)C(C)C(OC2OC(C)CC(N(C)C)C2O)C(CC=O)CC(C)C(=O)C=CC(C)=CC1CN1CCC(=O)CC1 (stereo not drawn) [Example 28, 23,4'-dideoxy-23-(4-pipridone)mycaminosyl tylonolide] | < 0.2 | < 0.2 | 0.39 (≈ 0.588 µM) | < 0.2 | < 0.2 | 0.39 (≈ 0.588 µM) | 3.12 (≈ 4.71 µM) | 6.25 (≈ 9.43 µM) | 6.25 (≈ 9.43 µM) | 1.56 (≈ 2.35 µM) | 0.78 (≈ 1.18 µM) | 6.25 (≈ 9.43 µM) |  |
| CCC1OC(=O)CC(O)C(C)C(OC2OC(C)CC(N(C)C)C2O)C(CC=O)CC(C)C(=O)C=CC(C)=CC1CN1CCOCC1 (stereo not drawn) [Example 29, 23,4'-dideoxy-23-morpholinomycaminosyl tylonolide] | 0.39 (≈ 0.599 µM) | 0.39 (≈ 0.599 µM) | 0.78 (≈ 1.2 µM) | < 0.2 | 0.39 (≈ 0.599 µM) | < 0.2 | 3.12 (≈ 4.79 µM) | 25 (≈ 38.4 µM) | 12.5 (≈ 19.2 µM) | 3.12 (≈ 4.79 µM) | 0.39 (≈ 0.599 µM) | 12.5 (≈ 19.2 µM) |  |
| CCC1OC(=O)CC(O)C(C)C(OC2OC(C)CC(N(C)C)C2O)C(CC=O)CC(C)C(=O)C=CC(C)=CC1CN1CCCCC1CO (stereo not drawn) [Example 31, 23,4'-dideoxy-23-[2-(hydroxymethyl)piperidino]mycaminosyl tylonolide] | 0.39 (≈ 0.574 µM) | < 0.2 | 0.39 (≈ 0.574 µM) | < 0.2 | 0.39 (≈ 0.574 µM) | 0.39 (≈ 0.574 µM) | 0.39 (≈ 0.574 µM) | 0.78 (≈ 1.15 µM) | 0.78 (≈ 1.15 µM) | 0.78 (≈ 1.15 µM) | 0.78 (≈ 1.15 µM) | 0.39 (≈ 0.574 µM) |  |
| CCC1OC(=O)CC(O)C(C)C(OC2OC(C)CC(N(C)C)C2O)C(CC=O)CC(C)C(=O)C=CC(C)=CC1CN1CCN(C)CC1 (stereo not drawn) [Example 32, 23,4'-dideoxy-23-(4-methylpiperazin-1-yl)mycaminosyl tylonolide] | 1.56 (≈ 2.35 µM) | 0.78 (≈ 1.17 µM) | 6.25 (≈ 9.41 µM) | < 0.2 | 1.56 (≈ 2.35 µM) | 6.25 (≈ 9.41 µM) | 3.12 (≈ 4.7 µM) | 25 (≈ 37.7 µM) | 6.25 (≈ 9.41 µM) | 25 (≈ 37.7 µM) | 0.2 (≈ 0.301 µM) | 6.25 (≈ 9.41 µM) |  |
| CCC1OC(=O)CC(O)C(C)C(OC2OC(C)CC(N(C)C)C2O)C(CC=O)CC(C)C(=O)C=CC(C)=CC1CNC(=O)c1ccccc1 (stereo not drawn) [Example 76, 23-Benzoylamino-23,4'-dideoxymycaminosyl tylonolide] | 0.39 (≈ 0.569 µM) | 0.39 (≈ 0.569 µM) | 0.78 (≈ 1.14 µM) | < 0.2 | 0.78 (≈ 1.14 µM) | < 0.2 | 3.12 (≈ 4.56 µM) | 6.25 (≈ 9.13 µM) | 6.25 (≈ 9.13 µM) | 3.12 (≈ 4.56 µM) | 1.56 (≈ 2.28 µM) | 3.12 (≈ 4.56 µM) |  |
| CCOC(=O)NCC1C=C(C)C=CC(=O)C(C)CC(CC=O)C(OC2OC(C)CC(N(C)C)C2O)C(C)C(O)CC(=O)OC1CC (stereo not drawn) [Example 78, 23,4'-Dideoxy-23-ethoxycarbonylaminomycaminosyl tylonolide] | < 0.2 | < 0.2 | 0.39 (≈ 0.597 µM) | < 0.2 | 0.39 (≈ 0.597 µM) | < 0.2 | 3.12 (≈ 4.78 µM) | 12.5 (≈ 19.1 µM) | 6.25 (≈ 9.57 µM) | 3.12 (≈ 4.78 µM) | 1.56 (≈ 2.39 µM) | 3.12 (≈ 4.78 µM) |  |
| CCC1OC(=O)CC(O)C(C)C(OC2OC(C)CC(N(C)C)C2O)C(CC=O)CC(C)C(=O)C=CC(C)=CC1CNC(=O)Oc1ccccc1 (stereo not drawn) [Example 80, 23,4'-Dideoxy-23-phenoxycarbonylaminomycaminosyl tylonolide] |  |  |  |  |  |  |  |  |  |  | 0.78 (≈ 1.11 µM) |  | MIC [1]; 193: < 0.2 µg/mL; MIC ([2]; 209P): < 0.2 µg/mL; MIC [3]: < 0.2 µg/mL; MIC [4]: < 0.2 µg/mL; MIC [5]: 0.39 µg/mL (≈ 0.556 µM); MIC [6]; 1810: < 0.2 µg/mL; MIC [7]: 3.12 µg/mL (≈ 4.45 µM); MIC [8]: 6.25 µg/mL (≈ 8.92 µM); MIC [9]: 6.25 µg/mL (≈ 8.92 µM); MIC [11]: 1.56 µg/mL (≈ 2.23 µM); MIC ([13]; ENTERITIDIS): 1.56 µg/mL (≈ 2.23 µM) |
| CCC1OC(=O)CC(O)C(C)C(OC2OC(C)CC(N(C)C)C2O)C(CC=O)CC(C)C(=O)C=CC(C)=CC1CN(CC)C(=O)OC (stereo not drawn) [Example 83, 23,4'-Dideoxy-23-N-ethylmethoxycarbonylaminomycaminosyl tylonolide] | < 0.2 | < 0.2 | 0.39 (≈ 0.585 µM) | < 0.2 | < 0.2 | < 0.2 | 6.25 (≈ 9.37 µM) | 12.5 (≈ 18.7 µM) | 12.5 (≈ 18.7 µM) | 12.5 (≈ 18.7 µM) | 1.56 (≈ 2.34 µM) | 6.25 (≈ 9.37 µM) |  |
| CCC1OC(=O)CC(O)C(C)C(OC2OC(C)CC(N(C)C)C2O)C(CC=O)CC(C)C(=O)C=CC(C)=CC1CN(CC)C(=O)Oc1ccccc1 (stereo not drawn) [Example 85, 23,4'-Dideoxy-23-N-ethylphenoxycarbonylaminomycaminosyl tylonolide] |  |  |  |  |  |  |  |  |  |  | 0.78 (≈ 1.07 µM) |  | MIC [1]; 193: 0.39 µg/mL (≈ 0.535 µM); MIC ([2]; 209P): < 0.2 µg/mL; MIC [3]: 0.39 µg/mL (≈ 0.535 µM); MIC [4]: < 0.2 µg/mL; MIC [5]: < 0.2 µg/mL; MIC [6]; 1810: < 0.2 µg/mL; MIC [7]: 12.5 µg/mL (≈ 17.1 µM); MIC [8]: 12.5 µg/mL (≈ 17.1 µM); MIC [9]: 12.5 µg/mL (≈ 17.1 µM); MIC [11]: 3.12 µg/mL (≈ 4.28 µM); MIC ([13]; ENTERITIDIS): 12.5 µg/mL (≈ 17.1 µM) |
